Laboratory results from US5639773A, “Ocular hypotensive agent” (priority 1993, dated 1997).
Read-outs that look alike come from different tables or passages of the source.

What was measured:
pigmented rabbits [1] = assay: Action for lowering intraocular pressure in pigmented rabbits (Pneumatonograph); format: in vivo, rabbit; conditions: for Intraocular Pressure 1 hour after instillation / Intraocular Pressure 30 minutes after instillation / Intraocular Pressure before instillation: 50 μl; for Intraocular Pressure before instillation: baseline; for ocular tension (result in words): suspended in 0.1 w/v % polysorbate 80
Description: (§1) The action for lowering intraocular pressure in rabbits
(§2) Male Japanese albino and pigmented rabbits having no anterior ocular abnormalities were used. One eye received 50 μl of the test drug, the other eye 50 μl of physiological saline as a control. Changes over time in ocular tension were measured. Ocular tension was measured for both eyes using a Pneumatonograph (produced by Alcon) before and 30 minutes and/or 1 hour after instillation. The test drug was (±)-1-(cyclohexyloxycarbonyloxy)ethyl 2-ethoxy-1-[[2'-(1H-tetrazol-5-yl)biphenyl-4-yl]methyl]-1H-benzimidazole-7-carboxylate (hereinafter referred to as Compound 1) as suspended in physiological saline or 0.1 w/v % polysorbate 80 to concentrations of 0.1, 0.5 and 1.0 w/v %. Also performed periodically were macroscopic observation of the anterior ocular segment and measurement of pupil diameter.

[2] = tested on: anterior ocular segment of rabbits; conditions: rabbit, in vivo
Description: as §2

pigmented rabbits [3] = conditions: rabbit, in vivo
Description: as §2

Japanese albino rabbits [4] = conditions: rabbit, in vivo
Description: as §2

Japanese albino rabbits [5] = assay: Action for lowering intraocular pressure in Japanese albino rabbits (Pneumatonograph); format: in vivo, rabbit; conditions: for Intraocular Pressure 30 minutes after instillation / Intraocular Pressure before instillation: 50 μl; for Intraocular Pressure 30 minutes after instillation / Intraocular Pressure before instillation / Intraocular Pressure difference: n=5; for Intraocular Pressure before instillation: baseline; for Intraocular Pressure difference: 30 minutes after vs before instillation
Description: as §1, §2

[6] = tested on: anterior ocular segment of rabbits; conditions: rabbit, in vivo; remark: listed apart in the source
Description: as §2

[7] = Acute toxicity test, rats; conditions: rat, in vivo; single oral administration, 5-week-old Jcl:Wistar rats (males, females)
Description: (§3) The LD50 of compound 1 exceeded 2,000 mg/kg, as of single oral administration, in 4-week-old Jcl:ICR mice (males, females) and 5-week-old Jcl:Wistar rats (males, females).

[8] = Acute toxicity test, mice; conditions: mouse, in vivo; single oral administration, 4-week-old Jcl:ICR mice (males, females)
Description: as §3

[9] = 0.1 w/v %, suspended in 0.1 w/v % polysorbate 80, n=6
[10] = 1.0 w/v %, suspended in 0.1 w/v % polysorbate 80, n=7
[11] = 0.1 w/v %, suspended in physiological saline
[12] = 0.5 w/v %, suspended in physiological saline

CCOc1nc2cccc(C(=O)OC(C)OC(=O)OC3CCCCC3)c2n1Cc1ccc(-c2ccccc2-c2nnn[nH]2)cc1 (racemic) [Compound 1, (±)-1-(cyclohexyloxycarbonyloxy)ethyl 2-ethoxy-1-[[2'-(1H-tetrazol-5-yl)biphenyl-4-yl]methyl]-1H-benzimidazole-7-carboxylate]
Intraocular Pressure 1 hour after instillation (pigmented rabbits [1]; [9]): 23.6 ± 0.33 mmHg
Intraocular Pressure 30 minutes after instillation (pigmented rabbits [1]; 0.1 w/v %, suspended in 0.1 w/v % polysorbate 80, n=6, *p < 0.05 vs before instillation): 22.0 ± 0.39 mmHg
Intraocular Pressure before instillation (pigmented rabbits [1]; [9]): 24.3 ± 0.25 mmHg
ocular tension (result in words) (pigmented rabbits [1]; 0.1 w/v %, 30 minutes after instillation): fell greatly
Intraocular Pressure 30 minutes after instillation (pigmented rabbits [1]; [10]): 21.9 ± 0.81 mmHg
Intraocular Pressure 1 hour after instillation (pigmented rabbits [1]; 1.0 w/v %, suspended in 0.1 w/v % polysorbate 80, n=7, **p < 0.001 vs before instillation): 21.4 ± 0.43 mmHg
Intraocular Pressure before instillation (pigmented rabbits [1]; [10]): 24.0 ± 0.29 mmHg
ocular tension (result in words) (pigmented rabbits [1]; 1.0 w/v %, one hour after instillation): fell greatly
macroscopic abnormalities in the anterior ocular segment [2]: no macroscopic abnormalities were noted
change in pupil diameter (pigmented rabbits [3]): Nor was there any change in pupil diameter
change in pupil diameter (Japanese albino rabbits [4]): Nor was there any change in pupil diameter
Intraocular Pressure 30 minutes after instillation (Japanese albino rabbits [5]; [11]): 16.3 ± 1.16 mmHg
Intraocular Pressure before instillation (Japanese albino rabbits [5]; [11]): 17.8 ± 0.80 mmHg
Intraocular Pressure difference (Japanese albino rabbits [5]; 0.1 w/v %): -1.5 mmHg
Intraocular Pressure 30 minutes after instillation (Japanese albino rabbits [5]; [12]): 16.0 ± 0.76 mmHg
Intraocular Pressure before instillation (Japanese albino rabbits [5]; [12]): 18.2 ± 0.60 mmHg
Intraocular Pressure difference (Japanese albino rabbits [5]; 0.5 w/v %): -2.2 mmHg
Intraocular Pressure 30 minutes after instillation (Japanese albino rabbits [5]; 1.0 w/v %, suspended in physiological saline, *p < 0.05 vs before instillation): 15.0 ± 0.47 mmHg
Intraocular Pressure before instillation (Japanese albino rabbits [5]; 1.0 w/v %, suspended in physiological saline): 18.7 ± 0.44 mmHg
Intraocular Pressure difference (Japanese albino rabbits [5]; 1.0 w/v %): -3.7 mmHg
ocular tension (result in words) (Japanese albino rabbits [5]; by 30 minutes after instillation, 0.1, 0.5 and 1.0 w/v %, suspended in physiological saline): fell dose-dependently
macroscopic abnormalities in the anterior ocular segment [6]: no macroscopic abnormalities were noted
LD50 [7]: > 2000 mg/kg
LD50 [8]: > 2000 mg/kg
